According to article PMC7703437, “In Vitro Hepatic Metabolism of Curcumin Diethyl Disuccinate by Liver S9 from Different Animal Species” (Frontiers in Pharmacology, 2020):
Where “and” joins values, the source holds several entries; their conditions need not be identical. Equal entries are not always repeated.

Key:
[1] = tested on: HLS9; assay: CDD depletion in HLS9 0.02 mg/ml (optimisation of incubation condition); type: in vitro ADME, human; details: CDD 3 μM
Description: (§1) The metabolism profiles of CDD and curcumin formation profile were investigated against HLS9, MLS9, DLS9 and RLS9. A stock solution of CDD was prepared at 150 µM in 50% acetonitrile in water before use. The metabolism study was initiated by spiking a 588 µl pre-incubated LS9 with 12 µl CDD stock solution, and subsequently incubated at 37°C. The final concentrations of CDD and LS9 were 3 µM and 0.02 mg/ml, respectively. A 50 µl aliquot from the mixture was collected at 0.5, 1, 2, 3, 4, 5, 10, 15, 30, 45 and 60 min and was immediately mixed with 100 µl of ice-cold acetonitrile containing 0.45 µM of internal standard DMC to terminate the metabolic reaction. […] Samples of 120 µl of supernatant wee diluted with 40 µl of water prior to UHPLC analysis (Agilent series 1290, Agilent Technology, USA) by means of protocol outlined in Materials and Methods:“In vitro Metabolism Profiling of Curcumin Diethyl Disuccinate”. The sample at 0 min was prepared as other samples except that heat-inactivated HLS9, MLS9, DLS9 and RLS9 (80°C for 20 min; 1 mg/ml protein) were used. Duplicates were conducted for each experiment.
(§2) The peak area ratios of CDD and curcumin to internal standard in the supernatant were determined. The percent contents of CDD and curcumin were plotted against incubation time. The depletion of CDD was calculated with reference to the initial concentration. The saturated substrate was defined as % depletion less than 30.

[2] = parameters: method as in Muangnoi et al., 2019b; details: ref Muangnoi et al., 2019b; cited from earlier work
[3] = tested on: DLS9; assay: CDD depletion in DLS9 0.02 mg/ml (optimisation of incubation condition); type: in vitro ADME, dog; details: CDD 3 μM
Description: as §1, §2

[4] = tested on: RLS9; assay: CDD depletion in RLS9 0.02 mg/ml (optimisation of incubation condition); type: in vitro ADME, rat; details: CDD 3 μM
Description: as §1, §2

[5] = 1 min (selected incubation time)

% CDD remaining ([1]; 0.5 min): 82.88% | %Depletion of CDD ([1]; 0.5 min): 17.12% | % CDD remaining ([1]; 1 min): 80.95% | %Depletion of CDD [1, 5]: 19% and 19.05% | % CDD remaining ([1]; 2 min): 68.18% | %Depletion of CDD ([1]; 2 min): 31.82% | % CDD remaining ([1]; 3 min): 57.46% | %Depletion of CDD ([1]; 3 min): 42.54% | % CDD remaining ([1]; 4 min): 43.15% | %Depletion of CDD ([1]; 4 min): 56.85% | % CDD remaining ([1]; 5 min): 36.37% | %Depletion of CDD ([1]; 5 min): 63.63% | % CDD remaining ([3]; 0.5 min): 76.77% | %Depletion of CDD ([3]; 0.5 min (selected incubation time)): 23% and 23.23% | % CDD remaining ([3]; 1 min): 66.99% | %Depletion of CDD ([3]; 1 min): 33.01% | % CDD remaining ([3]; 2 min): 49.79% | %Depletion of CDD ([3]; 2 min): 50.21% | % CDD remaining ([3]; 3 min): 42.26% | %Depletion of CDD ([3]; 3 min): 57.74% | % CDD remaining ([3]; 4 min): 31.30% | %Depletion of CDD ([3]; 4 min): 68.70% | % CDD remaining ([3]; 5 min): 25.06% | %Depletion of CDD ([3]; 5 min): 74.94% | % CDD remaining ([4]; 0.5 min): 82.81% | %Depletion of CDD ([4]; 0.5 min): 17.19% | % CDD remaining ([4]; 1 min): 78.14% | %Depletion of CDD [4, 5]: 22% and 21.86% | % CDD remaining ([4]; 2 min): 62.71% | %Depletion of CDD ([4]; 2 min): 37.29% | % CDD remaining ([4]; 3 min): 56.54% | %Depletion of CDD ([4]; 3 min): 43.46% | % CDD remaining ([4]; 4 min): 46.44% | %Depletion of CDD ([4]; 4 min): 53.56% | % CDD remaining ([4]; 5 min): 40.58% | %Depletion of CDD ([4]; 5 min): 59.42%
Structure (SMILES): CCOC(=O)CCC(=O)Oc1ccc(/C=C/C(=O)/C=C(O)/C=C/c2ccc(OC(=O)CCC(=O)OCC)c(OC)c2)cc1OC [CDD, curcumin diethyl disuccinate]
log P [2]: 2.55
